Values of other authors as cited in patent EP0534246A2, “Benzylamine derivatives and medicines with antiarrhythmic activity containing them” (BASF Aktiengesellschaft, priority 1991, dated 1993).

Molecular target: K^+ATP-Kanal (Homo sapiens, UniProt Q14654)
Conditions: J. Mol. Cell. Cardiol. 21, Suppl. 2, S. 9, 1989

K^+ATP-Kanal, sequence (Q14654 whole entry): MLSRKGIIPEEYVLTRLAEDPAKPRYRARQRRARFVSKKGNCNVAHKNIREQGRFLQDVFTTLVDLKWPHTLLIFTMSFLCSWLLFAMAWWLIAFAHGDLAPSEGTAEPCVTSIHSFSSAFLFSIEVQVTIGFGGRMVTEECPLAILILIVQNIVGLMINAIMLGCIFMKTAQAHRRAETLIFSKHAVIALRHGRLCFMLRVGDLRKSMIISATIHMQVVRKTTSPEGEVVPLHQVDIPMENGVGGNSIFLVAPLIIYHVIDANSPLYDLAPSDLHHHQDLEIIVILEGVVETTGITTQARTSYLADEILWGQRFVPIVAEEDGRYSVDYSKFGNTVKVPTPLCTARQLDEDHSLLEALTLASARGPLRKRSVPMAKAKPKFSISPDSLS
K^+ATP-Kanal, sequence (O60706 whole entry partner): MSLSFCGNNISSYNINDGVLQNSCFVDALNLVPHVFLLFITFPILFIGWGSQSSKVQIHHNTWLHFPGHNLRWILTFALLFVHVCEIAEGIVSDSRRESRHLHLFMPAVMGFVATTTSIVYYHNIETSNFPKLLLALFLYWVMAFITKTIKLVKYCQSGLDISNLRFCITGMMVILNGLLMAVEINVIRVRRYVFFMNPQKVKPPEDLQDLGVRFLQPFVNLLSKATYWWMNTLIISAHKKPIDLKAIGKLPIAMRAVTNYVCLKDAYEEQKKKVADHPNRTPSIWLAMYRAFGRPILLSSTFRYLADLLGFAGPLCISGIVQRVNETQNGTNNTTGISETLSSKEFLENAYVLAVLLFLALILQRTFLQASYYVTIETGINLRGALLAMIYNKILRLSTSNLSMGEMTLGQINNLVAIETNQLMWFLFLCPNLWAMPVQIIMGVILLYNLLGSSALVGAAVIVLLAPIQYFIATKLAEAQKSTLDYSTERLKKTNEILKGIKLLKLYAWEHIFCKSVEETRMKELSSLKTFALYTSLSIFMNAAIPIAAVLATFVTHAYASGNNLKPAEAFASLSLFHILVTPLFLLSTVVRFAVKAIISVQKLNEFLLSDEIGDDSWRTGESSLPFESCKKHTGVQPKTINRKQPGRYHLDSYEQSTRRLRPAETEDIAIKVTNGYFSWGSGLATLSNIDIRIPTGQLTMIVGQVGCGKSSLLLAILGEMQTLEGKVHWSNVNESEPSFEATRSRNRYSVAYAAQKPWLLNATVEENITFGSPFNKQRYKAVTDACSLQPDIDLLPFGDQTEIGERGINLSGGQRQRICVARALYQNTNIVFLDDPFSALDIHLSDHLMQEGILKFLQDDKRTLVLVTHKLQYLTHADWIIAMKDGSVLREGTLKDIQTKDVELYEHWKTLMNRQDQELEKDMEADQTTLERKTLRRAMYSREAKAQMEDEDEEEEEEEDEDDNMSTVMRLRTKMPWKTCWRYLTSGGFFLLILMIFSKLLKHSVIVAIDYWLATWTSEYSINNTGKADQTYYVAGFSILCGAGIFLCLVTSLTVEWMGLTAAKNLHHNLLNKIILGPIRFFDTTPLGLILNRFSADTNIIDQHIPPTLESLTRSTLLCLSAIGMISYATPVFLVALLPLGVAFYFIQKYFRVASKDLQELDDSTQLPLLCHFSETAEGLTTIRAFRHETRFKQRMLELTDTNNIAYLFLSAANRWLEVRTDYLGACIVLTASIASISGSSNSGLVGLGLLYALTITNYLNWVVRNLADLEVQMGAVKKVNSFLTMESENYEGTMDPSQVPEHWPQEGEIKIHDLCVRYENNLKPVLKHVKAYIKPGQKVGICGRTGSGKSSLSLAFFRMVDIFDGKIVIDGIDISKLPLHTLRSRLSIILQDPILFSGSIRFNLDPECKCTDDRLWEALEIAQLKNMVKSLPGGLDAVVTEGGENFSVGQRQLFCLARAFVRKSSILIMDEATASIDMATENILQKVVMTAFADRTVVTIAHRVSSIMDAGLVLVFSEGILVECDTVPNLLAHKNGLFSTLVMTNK

Konzentration, bei der Wirkung gezeigt wird (Blocker des ATP-abhängigen K+-Kanals): ca. 100 um
SMILES: CCCCCC(O)CCCC(=O)O (stereo not shown) [5-Hydroxydekanoat]
